Measurements taken from patent US4385062A, “1-[(-2-Mercaptocycloalkyl)carbonyl]-L-proline derivatives, the process for their manufacture, the intermediates for their synthesis and their use as anti-hypertensive agents” (Gruppo Lepetit S.p.A., priority 1980, dated 1983).

Tests used:
[1] = target: T1, angiotensin converting enzyme (Rattus norvegicus, UniProt P47820); experiment: in vitro radioimmunoassay of angiotensin-II generation in rat plasma (converting enzyme inhibition); assay type: biochemical; conditions: 37° C., 30 minutes, angiotensin-II antibody trapping, read-out: IC50 (concentration at which a 50% inhibition of formation of angiotensin-II with respect to the control occurs) (converted)
T1 construct: rat plasma containing angiotensinogen, renin and converting enzyme in physiological amounts; from tissue; host or cells: rat plasma
T1 sequence (P47820 36-1238 limits assumed): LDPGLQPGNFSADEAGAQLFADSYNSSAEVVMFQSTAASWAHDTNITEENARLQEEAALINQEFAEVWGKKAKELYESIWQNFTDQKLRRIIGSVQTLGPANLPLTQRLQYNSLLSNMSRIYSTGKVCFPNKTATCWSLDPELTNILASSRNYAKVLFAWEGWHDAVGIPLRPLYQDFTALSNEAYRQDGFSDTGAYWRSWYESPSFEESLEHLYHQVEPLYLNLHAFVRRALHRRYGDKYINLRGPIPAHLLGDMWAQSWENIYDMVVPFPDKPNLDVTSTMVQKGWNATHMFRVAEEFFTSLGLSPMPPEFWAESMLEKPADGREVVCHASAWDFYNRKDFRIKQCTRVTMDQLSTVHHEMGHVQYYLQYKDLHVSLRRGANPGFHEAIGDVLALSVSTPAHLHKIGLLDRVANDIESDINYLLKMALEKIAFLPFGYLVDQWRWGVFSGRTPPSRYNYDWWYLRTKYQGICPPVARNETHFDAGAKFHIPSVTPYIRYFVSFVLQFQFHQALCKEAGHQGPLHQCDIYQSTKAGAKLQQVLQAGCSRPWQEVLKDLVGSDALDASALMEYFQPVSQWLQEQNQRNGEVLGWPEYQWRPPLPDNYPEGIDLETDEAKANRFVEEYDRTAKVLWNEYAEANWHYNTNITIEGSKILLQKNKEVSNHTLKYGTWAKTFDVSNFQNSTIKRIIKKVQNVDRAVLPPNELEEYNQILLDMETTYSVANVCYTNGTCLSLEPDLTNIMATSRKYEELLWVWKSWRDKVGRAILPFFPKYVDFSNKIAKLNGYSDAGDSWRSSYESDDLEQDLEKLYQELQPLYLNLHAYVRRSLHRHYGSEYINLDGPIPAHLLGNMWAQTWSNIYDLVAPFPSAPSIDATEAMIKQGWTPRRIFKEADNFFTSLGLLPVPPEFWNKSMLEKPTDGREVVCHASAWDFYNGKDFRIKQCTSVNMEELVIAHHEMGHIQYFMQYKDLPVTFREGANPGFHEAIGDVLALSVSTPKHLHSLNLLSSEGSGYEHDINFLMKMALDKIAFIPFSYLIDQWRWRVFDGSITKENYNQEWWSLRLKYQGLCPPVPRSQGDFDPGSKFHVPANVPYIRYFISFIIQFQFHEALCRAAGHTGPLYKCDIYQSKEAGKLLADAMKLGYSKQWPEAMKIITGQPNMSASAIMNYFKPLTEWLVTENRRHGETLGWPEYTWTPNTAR
Protocol: The in vitro activity was determined by a radioimmuno-assay carried out using the methodology illustrated by K. Poulsen in J. Lab. […] More particularly, the in vitro activity was quantitatively evaluated by following the procedure described below:
50 μl of rat plasma containing angiotensinogen, renin and converting enzyme in physiological amounts, but deprived of endogenous angiotensin-I and angiotensin-II, and 10 μl of angiotensin-II antibody in dilution (1:120) were incubated in a tube at 37° C. for 30 minutes.
During this enzymatic incubation in the absence of converting enzyme inhibitors, angiotensin-II which forms is then transformed into angiotensin-II by the action of converting enzyme and the angiotensin-II antibody which is present in the incubate, then captures and traps it, thus preserving angiotensin-II from the degrading action of plasmatic angiotensinases. Incubation was terminated by placing the tube at 0° C. and the amount of angiotensin-II formed and captured by the antibody was measured by radioimmunoassay (see K. Poulsen and J. Jorgensen J. Clin. Endocrinol. Metab. 39, 816-825 (1974). […]
As said above, the amount of captured angiotensin-II, was determined by a radioimmunological assay. […] After centrifugation at 3000×g for 30 minutes the supernatant which contains the antibody-bound angiotensin-II, was decanted in counting tubes and each sample was then counted.
For calculation of generated angiotensin-II from the amount of antibody-bound labeled angiotensin-II, an angiotensin-II standard curve was constructed using 50 μg of standard angiotensin-II (containing zero to 7.5 pg of angiotensin-II) and 10 μl of angiotensin-II antibody in dilution (1:120). […] By plotting the amounts of antibody-bound labeled angiotensin-II versus the known amounts of angiotensin-II initially present, a standard curve can be constructed, which allow a direct correlation between the amount of antibody-bound labeled angiotensin-II determined in each test and the amount of generated angiotensin-II.

[2] = target: T2, angiotensin converting enzyme (Rattus norvegicus, UniProt P47820); experiment: inhibition of the pressure increase induced by angiotensin-I in anesthetized normotensive rats; assay type: in vivo; conditions: normotensive rats anesthetized with nembuthal, angiotensin-I 0.1 μg/Kg, generally 15 minutes after test compound
T2 construct: confirmed also in vivo by means of an experiment performed on normotensive rats; from tissue; host or cells: anesthetized normotensive rats (whole animal)
T2 sequence (P47820 36-1313): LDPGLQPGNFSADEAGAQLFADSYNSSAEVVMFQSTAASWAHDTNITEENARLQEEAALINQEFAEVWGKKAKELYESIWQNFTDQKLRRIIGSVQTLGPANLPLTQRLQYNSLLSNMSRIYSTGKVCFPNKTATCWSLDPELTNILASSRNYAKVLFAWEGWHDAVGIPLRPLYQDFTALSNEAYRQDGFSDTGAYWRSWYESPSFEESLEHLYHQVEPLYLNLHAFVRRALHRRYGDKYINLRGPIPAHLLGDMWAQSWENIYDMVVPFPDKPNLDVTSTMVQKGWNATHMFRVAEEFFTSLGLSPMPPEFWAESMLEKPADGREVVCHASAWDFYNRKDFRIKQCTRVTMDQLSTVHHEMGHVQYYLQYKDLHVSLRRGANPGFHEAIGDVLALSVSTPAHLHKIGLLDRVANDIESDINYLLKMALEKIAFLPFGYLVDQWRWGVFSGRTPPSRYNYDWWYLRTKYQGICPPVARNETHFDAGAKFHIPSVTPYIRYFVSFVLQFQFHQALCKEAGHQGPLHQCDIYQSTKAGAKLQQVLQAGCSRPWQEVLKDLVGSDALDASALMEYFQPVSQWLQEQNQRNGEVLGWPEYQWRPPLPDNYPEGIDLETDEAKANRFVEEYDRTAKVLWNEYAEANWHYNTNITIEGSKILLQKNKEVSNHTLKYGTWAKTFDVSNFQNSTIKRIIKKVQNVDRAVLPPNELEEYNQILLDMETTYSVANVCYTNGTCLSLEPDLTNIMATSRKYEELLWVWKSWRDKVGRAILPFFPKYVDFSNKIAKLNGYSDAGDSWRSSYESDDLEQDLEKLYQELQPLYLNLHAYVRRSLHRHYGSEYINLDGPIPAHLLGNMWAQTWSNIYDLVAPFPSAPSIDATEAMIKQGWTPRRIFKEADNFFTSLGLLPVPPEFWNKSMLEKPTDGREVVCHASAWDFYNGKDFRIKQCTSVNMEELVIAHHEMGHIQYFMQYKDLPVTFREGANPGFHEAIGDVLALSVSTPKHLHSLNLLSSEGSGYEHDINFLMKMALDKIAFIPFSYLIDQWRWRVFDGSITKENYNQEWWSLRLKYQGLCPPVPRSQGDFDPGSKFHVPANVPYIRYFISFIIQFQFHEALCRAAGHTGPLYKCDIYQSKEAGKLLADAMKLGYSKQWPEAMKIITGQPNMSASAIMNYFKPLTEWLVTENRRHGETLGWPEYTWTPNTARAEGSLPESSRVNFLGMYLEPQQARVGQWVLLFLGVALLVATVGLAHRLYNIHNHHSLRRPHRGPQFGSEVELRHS
Protocol: The experiment was carried out simultaneously with the above one and under the same conditions.
The basal pressure value for each rat was recorded, then doses of 0.1 μg/Kg of body weight of angiotensin-I were injected through the jugular catheter. […] From these values and the basal ones the pressure increase induced by angiotensin-I in each rat was calculated.
The percentages of inhibition of the pressure increase induced by angiotensin-I by different doses of test compounds were easily calculated and for each dose a single value, averaged on the three animals of the group was considered. By plotting the concentrations of test compound on a logarithmic scale versus the percent inhibitory effects, a linear correlation was established which allowed the calculation of the ED50, i.e. the dose of test compound which inhibits by 50% the pressure increase induced by angiotensin-I.

Row | IC50 [1] [nM] | ED50 ([2]; rat, iv, 0.25 h, read-out: ED50 (dose which inhibits by 50% the pressure increase induced by angiotensin-I)) [mg/kg] | ED50 (dose which inhibits by 50% the pressure increase induced by angiotensin-I) ([2]; intravenous, 15 min) [mg/kg] | Structure (SMILES)
1 | 662 | – | – | O=C(SC1CCCC1C(=O)N1CCC[C@H]1C(=O)O)c1ccccc1 (single isomer, unassigned) [Example 5B, 1-[(2-benzoylthiocyclopentyl)carbonyl]-L-proline]
2 | 863 | – | – | O=C(O)[C@@H]1CCCN1C(=O)C1CCCC1S (single isomer, unassigned) [Example 6A, 1-[(2-mercaptocyclopentyl)carbonyl]-L-proline]
3 | 2340 | 2.3 | – | O=C(O)[C@@H]1CCCN1C(=O)C1CCCC1S (stereo partly drawn) [Example 2, 1-[(2-mercaptocyclopentyl)carbonyl]-L-proline]
4 | – | – | 1.8 | O=C(O)[C@@H]1CCCN1C(=O)C1CCCC1S (stereo partly drawn) [Example 6B, 1-[(2-mercaptocyclopentyl)carbonyl]-L-proline]
